Measured values taken from patent US7488799B2, “Prostaglandin receptor protein” (Aventis Pharmaceuticals Inc., priority 2003, dated 2009).

Assays:
[1] = system: recombinant guinea pig DP receptor; assay: Intracellular calcium assay (FLIPR), guinea pig DP receptor in HEK293-Gα16 cells; type: cell-based, guinea pig (Cavia porcellus); settings: guinea pig DP-expressing HEK293-Gα16 cells, FIG. 6, read-out: EC50, intracellular calcium mobilization
Protocol: For functional characterization the newly cloned guinea pig DP receptor was stably transfected into HEK293-Gα16 cells and for comparison an equivalent cell line was generated with the mouse DP receptor. Both DP receptor-expressing cell lines, as well as the parental cell line not expressing any transfected DP receptor, were evaluated in a second messenger assay using the force coupling of the receptor to Gα16 to elicit a calcium response. Intracellular calcium measurements were performed using non-transfected HEK293-Gα16 cells or cells transfected with either the pEAK10-gpDP or the pEAK10-mDP expression vectors. Transfected and non-transfected cells were plated in 384 well plates at 10,000 cells per well. Cells were washed three times with calcium assay buffer. Cells were then incubated with 4 μM of the calcium loading dye Fura-4/AM (Molecular Probes) at 37° C. for x min. Unincorporated fura-4/AM was removed by three further washes with calcium assay buffer. Intracellular calcium was measured following PGD2 or buffer stimulation of Fura-4/AM loaded cells using a FLIPR instrument (Molecular Devices Corp.).

mouse DP receptor [2] = target: T1, mouse DP receptor (Mus musculus, UniProt P70263); assay: Intracellular calcium assay (FLIPR), mouse DP receptor in HEK293-Gα16 cells; type: cell-based; settings: mouse DP-expressing HEK293-Gα16 cells, FIG. 6, read-out: EC50, intracellular calcium mobilization
T1 construct: A full length cDNA for the mouse DP receptor was obtained by PCR; expressed in transfected cells
T1 sequence (P70263 1-357): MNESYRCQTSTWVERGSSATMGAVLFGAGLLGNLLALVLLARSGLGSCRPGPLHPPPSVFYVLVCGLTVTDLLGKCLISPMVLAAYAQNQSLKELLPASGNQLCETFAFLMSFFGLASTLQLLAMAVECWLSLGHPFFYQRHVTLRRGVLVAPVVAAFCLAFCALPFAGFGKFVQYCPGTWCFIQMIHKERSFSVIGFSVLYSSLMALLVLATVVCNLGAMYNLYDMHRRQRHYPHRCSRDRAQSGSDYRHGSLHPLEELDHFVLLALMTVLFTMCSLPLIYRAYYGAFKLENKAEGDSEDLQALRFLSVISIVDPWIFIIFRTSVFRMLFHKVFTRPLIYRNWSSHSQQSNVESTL
Protocol: The pEAK10-gpDP and pEAK10-mDP vectors were transfected into the HEK293-Gα16 cell line using Lipofectamine 2000 (Gibco) as described by the manufacturer. Transfected cells were cultured under selection with 1 ug/ml puromycin and 250 ug/ml zeocin for 5 weeks. Expression of the DP receptor was monitored in the transfected cell population by measuring the release of intracellular calcium in response to PGD2 stimulation.
For functional characterization the newly cloned guinea pig DP receptor was stably transfected into HEK293-Gα16 cells and for comparison an equivalent cell line was generated with the mouse DP receptor. Both DP receptor-expressing cell lines, as well as the parental cell line not expressing any transfected DP receptor, were evaluated in a second messenger assay using the force coupling of the receptor to Gα16 to elicit a calcium response. Intracellular calcium measurements were performed using non-transfected HEK293-Gα16 cells or cells transfected with either the pEAK10-gpDP or the pEAK10-mDP expression vectors. Transfected and non-transfected cells were plated in 384 well plates at 10,000 cells per well. Cells were washed three times with calcium assay buffer. […] Intracellular calcium was measured following PGD2 or buffer stimulation of […] loaded cells using a FLIPR instrument (Molecular Devices Corp.).

[3] = system: parental HEK293-Gα16 cell line; assay: Intracellular calcium assay (FLIPR), parental cell line without transfected DP receptor; type: cell-based; settings: parental HEK293-Gα16 cells, no transfected DP receptor
Text: The cDNA encoding human Gα16 was cloned as described (Amatruda et al., 1991). Briefly, total RNA from HL-60 human promyelocytic leukemia cells was isolated and used as a template for PCR-mediated synthesis of cDNA encoding Gα16. The resulting PCR product was cloned into the expression vector pHook-3 (Invitrogen), which also coexpresses a single-chain antibody (sFv) to allow convenient enrichment of transfected cells using a panning protocol with hapten-coated magnetobeads (Chesnut et al., 1996). HEK293 cells were transfected with the constructed plasmid (pGα16), selected with Zeocin and positive clones enriched using magnetobeads according to protocols supplied by the vendor. […]
For functional characterization the newly cloned guinea pig DP receptor was stably transfected into HEK293-Gα16 cells and for comparison an equivalent cell line was generated with the mouse DP receptor. Both DP receptor-expressing cell lines, as well as the parental cell line not expressing any transfected DP receptor, were evaluated in a second messenger assay using the force coupling of the receptor to Gα16 to elicit a calcium response. […] Intracellular calcium was measured following PGD2 or buffer stimulation of […] loaded cells using a FLIPR instrument (Molecular Devices Corp.).

[4] = system: recombinant guinea pig DP receptor; assay: SPA cAMP assay, guinea pig DP cell line; type: cell-based, guinea pig (Cavia porcellus); settings: 15 minutes stimulation, FIG. 7, read-out: EC50, cAMP accumulation
Protocol: (§1) An additional functional characterization of the newly cloned guinea pig DP receptor used the natural signaling pathway for DP, the stimulation of cAMP production by adenylate cyclase. Transfected or non-transfected cells were plated at 40,000 cells per well of a 96 well plate. After overnight incubation at 37° C., medium was replaced and cells were stimulated with defined concentrations of PGD2 for 15 minutes. The accumulation of cAMP was measured in the stimulated cells using the cAMP SPA Direct Screening Assay System (Amersham) according to procedures specified by the manufacturer.

mouse DP receptor [5] = target: T1, mouse DP receptor; assay: SPA cAMP assay, mouse DP cell line; type: cell-based; settings: 15 minutes stimulation, FIG. 7, read-out: EC50, cAMP accumulation
[6] = system: parental HEK293-Gα16 cell line; assay: SPA cAMP assay, parental cell line; type: cell-based; settings: parental HEK293-Gα16 cells, 15 minutes stimulation
Protocol: as §1

CCCCC[C@H](O)/C=C/[C@H]1C(=O)C[C@H](O)[C@@H]1C/C=C\CCCC(=O)O [PGD2, Prostaglandin D2]
EC50 [1]: 1.4 nM
EC50 (mouse DP receptor [2]): 18 nM
PGD2 concentration at which a calcium response is seen [3]: above 10 μM
EC50 [4]: 0.8 nM
EC50 (mouse DP receptor [5]): 0.5 nM
intracellular cAMP response to stimulation [6]: did not show an increase in intracellular cAMP
